Source: US20210002262A1, “CYANOPYRROLIDINES AS USP30 INHIBITORS AND FIBROSIS TREATMENT” (MISSION THERAPEUTICS LIMITED, priority 2018, published 2021)
“Also recorded” adds a separate entry of the source.

These molecules were tested on Unilateral ureteral obstruction (UUO) kidney fibrosis (assay: Unilateral ureteral obstructive kidney disease model (UUO)). Details: UUO, 20 mg/kg IN-1130 QD IP, days 0 to 10.
Format: in vivo
Source text: In this study, adult C57B16 female mice at 7 to 8 weeks of age with average weight of around 18 to 20 g were used. To complete the ureteral obstruction, the abdominal cavity was exposed via a midline incision and the left ureter was ligated at two points with 4-0 silk and dissected. Successful unilateral ureteral obstruction was later confirmed by observation of dilation of the renal pelvis due to hydronephrosis.
At harvest, mice were anesthetised and both kidneys were harvested; the contralateral kidney serves as control for the UUO kidney. The kidneys were dissected along median line into two parts, of which one side was fixed in formaldehyde, for paraffin embedding and the other was snap frozen for protein or RNA isolation.
Formalin fixed tissue were embedded in paraffin blocks and cut into 5 μm sections. All damaged kidneys, 5 contralateral kidneys from each group and 3 sham kidneys were analysed (in total n=80 kidney samples). Picrosirius Red and α-SMA stain was performed to evaluate fibrotic changes and myofibroblast activation. Analysis was performed by a pathology trained technical staff member, without knowledge of the animal group assignment. High magnification images were taken of each slide an analysed for the surface area covered by the stain.

Structure (SMILES)	In life mortality
Cc1cccc(-c2[nH]c(Cc3cccc(C(N)=O)c3)nc2-c2ccc3nccnc3c2)n1 [IN-1130, reference compound]	0%

Each molecule was assayed against T1, USP30 (Homo sapiens, UniProt Q70CQ3) (assay: USP30 biochemical IC50 assay). Details: not given.
T1 sequence (Q70CQ3 1-517): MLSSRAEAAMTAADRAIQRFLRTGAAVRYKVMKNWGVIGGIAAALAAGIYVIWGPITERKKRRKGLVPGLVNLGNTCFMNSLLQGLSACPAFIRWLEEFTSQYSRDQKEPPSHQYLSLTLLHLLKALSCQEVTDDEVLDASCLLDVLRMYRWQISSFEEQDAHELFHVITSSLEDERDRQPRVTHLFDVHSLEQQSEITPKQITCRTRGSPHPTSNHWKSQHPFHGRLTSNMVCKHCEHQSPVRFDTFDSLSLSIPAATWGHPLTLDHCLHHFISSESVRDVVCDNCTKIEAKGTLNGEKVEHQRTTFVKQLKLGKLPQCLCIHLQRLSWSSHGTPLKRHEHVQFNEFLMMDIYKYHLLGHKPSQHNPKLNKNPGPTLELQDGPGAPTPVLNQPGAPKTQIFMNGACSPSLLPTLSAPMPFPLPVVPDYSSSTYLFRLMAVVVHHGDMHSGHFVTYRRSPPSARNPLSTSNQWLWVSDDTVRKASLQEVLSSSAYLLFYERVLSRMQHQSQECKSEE
Protocol: Dilution plates were prepared at 21 times the final concentration (2100 μM for a final concentration of 100 μM) in 50% DMSO in a 96-well polypropylene V-bottom plate (Greiner #651201). A typical 8-point dilution series would be 100, 30, 10, 3, 1, 0.3, 0.1, 0.03 μM final. Reactions were performed in duplicate in black 384 well plates (small volume, Greiner 784076) in a final reaction volume of 21 μl. Either 1 μl of 50% DMSO or diluted compound was added to the plate. USP30 was diluted in reaction buffer (40 mM Tris, pH 7.5, 0.005% Tween 20, 0.5 mg/ml BSA, 5 mM beta-mercaptoethanol) to the equivalent of 0.05 μl/well and 10 μl of diluted USP30 was added to the compound. Enzyme and compound were incubated for 30 min at room temp. Reactions were initiated by the addition of 50 nM of TAMRA labelled peptide linked to ubiquitin via an iso-peptide bond as fluorescence polarisation substrate. Reactions were read immediately after addition of substrate and following a 2-hour incubation at room temperature. Readings were performed on a Pherastar Plus (BMG Labtech). λ Excitation 540 nm; λ Emission 590 nm.

IC50	Structure (SMILES)
10 to 100 nM	C[C@@H]1C(CNC(=O)c2ncn(-c3cccc(C#N)c3)n2)CCN1C#N (mixture of isomers) [Example 4, N-(((2R,3R)-1-cyano-2-methylpyrrolidin-3-yl)methyl)-1-(3-cyanophenyl)-1H-1,2,4-triazole-3-carboxamide and N-(((2R,3S)-1-cyano-2-methylpyrrolidin-3-yl)methyl)-1-(3-cyanophenyl)-1H-1,2,4-triazole-3-carboxamide]
100 to 1000 nM	N#CN1CCC(CNC(=O)c2ncn(-c3ccccc3)n2)C1 (stereo not shown) [Example 3, N-((1-cyanopyrrolidin-3-yl)methyl)-1-phenyl-1H-1,2,4-triazole-3-carboxamide]
100 to 1000 nM	N#CN1CC[C@H](CNC(=O)c2cn(-c3cccc(Cl)c3)nn2)C1 [Example 6, (R)-1-(3-chlorophenyl)-N-((1-cyanopyrrolidin-3-yl)methyl)-1H-1,2,3-triazole-4-carboxamide]
< 10 nM	N#CN1CC[C@H](CNC(=O)c2cnn(-c3cccc(Cl)c3)n2)C1 [Example 7, (R)-2-(3-chlorophenyl)-N-((1-cyanopyrrolidin-3-yl)methyl)-2H-1,2,3-triazole-4-carboxamide]

Same assay, conditions: Examples of WO 2017/103614

IC50	Structure (SMILES)
10 to 100 nM	N#CN1CC[C@H](CNc2ncc(-c3ccccc3)s2)C1 [Example 9, (R)-3-(((5-phenylthiazol-2-yl)amino)methyl)pyrrolidine-1-carbonitrile]
100 to 1000 nM	N#CN1CCC(CNC(=O)c2cnc(-c3ccccc3)o2)C1 (stereo not shown) [Example 20, N-((1-cyanopyrrolidin-3-yl)methyl)-2-phenyloxazole-5-carboxamide]
100 to 1000 nM	N#CN1CCC(CNC(=O)c2cc(-c3ccccc3)no2)C1 (stereo not shown) [Example 21, N-((1-cyanopyrrolidin-3-yl)methyl)-3-phenylisoxazole-5-carboxamide]
100 to 1000 nM	N#CN1CCC(CNC(=O)c2cc(-c3ccccc3)[nH]n2)C1 (stereo not shown) [Example 22, N-((1-cyanopyrrolidin-3-yl)methyl)-5-phenyl-1H-pyrazole-3-carboxamide]
100 to 1000 nM	N#CN1CCC(CNC(=O)c2csc(-c3ccccc3)n2)C1 (stereo not shown) [Example 26, N-((1-cyanopyrrolidin-3-yl)methyl)-2-phenylthiazole-4-carboxamide]
100 to 1000 nM	N#CN1CCC(CNC(=O)c2cc(-c3ccccc3F)n[nH]2)C1 (stereo not shown) [Example 31, N-((1-cyanopyrrolidin-3-yl)methyl)-3-(2-fluorophenyl)-1H-pyrazole-5-carboxamide]
100 to 1000 nM	N#CN1CCC(CNC(=O)c2ncc(-c3ccccc3)o2)C1 (stereo not shown) [Example 38, N-((1-cyanopyrrolidin-3-yl)methyl)-5-phenyloxazole-2-carboxamide]
10 to 100 nM	N#CN1CC[C@H](CNC(=O)c2cc(-c3cccc(Cl)c3)no2)C1 [Example 55, (R)-3-(3-chlorophenyl)-N-((1-cyanopyrrolidin-3-yl)methyl)isoxazole-5-carboxamide]
100 to 1000 nM	N#CN1CC[C@H](CNC(=O)c2cc(-c3ccccc3)on2)C1 [Example 58, (R)-N-((1-cyanopyrrolidin-3-yl)methyl)-5-phenylisoxazole-3-carboxamide]
100 to 1000 nM	N#CN1CC[C@H](CNC(=O)c2nc(-c3ccccc3)cs2)C1 [Example 62, (R)-N-((1-cyanopyrrolidin-3-yl)methyl)-4-phenylthiazole-2-carboxamide]
100 to 1000 nM	N#CN1CC[C@H](CNC(=O)c2ccn(-c3ccccc3)n2)C1 [Example 63, (R)-N-((1-cyanopyrrolidin-3-yl)methyl)-1-phenyl-1H-pyrazole-3-carboxamide]
100 to 1000 nM	N#CN1CC[C@H](CNC(=O)c2cnc(-c3ccccc3)[nH]2)C1 [Example 64, (R)-N-((1-cyanopyrrolidin-3-yl)methyl)-2-phenyl-1H-imidazole-5-carboxamide]
100 to 1000 nM	N#CN1CC[C@H](CNC(=O)c2cc(-c3ccccc3Cl)no2)C1 [Example 66, (R)-3-(2-chlorophenyl)-N-((1-cyanopyrrolidin-3-yl)methyl)isoxazole-5-carboxamide]
100 to 1000 nM	N#CN1CC[C@H](CNC(=O)c2cc(-c3ccc(Cl)cc3)no2)C1 [Example 67, (R)-3-(4-chlorophenyl)-N-((1-cyanopyrrolidin-3-yl)methyl)isoxazole-5-carboxamide]
10 to 100 nM	N#Cc1cccc(-c2nnc(C(=O)NC[C@@H]3CCN(C#N)C3)o2)c1 [Example 69, (S)-5-(3-cyanophenyl)-N-((1-cyanopyrrolidin-3-yl)methyl)-1,3,4-oxadiazole-2-carboxamide]
10 to 100 nM	N#Cc1cccc(-n2cnc(C(=O)NC[C@H]3CCN(C#N)C3)c2)c1 [Example 71, (R)-1-(3-cyanophenyl)-N-((1-cyanopyrrolidin-3-yl)methyl)-1H-imidazole-4-carboxamide]
100 to 1000 nM	N#Cc1ccc(-n2cnc(C(=O)NC[C@H]3CCN(C#N)C3)c2)cc1 [Example 72, (R)-1-(4-cyanophenyl)-N-((1-cyanopyrrolidin-3-yl)methyl)-1H-imidazole-4-carboxamide]

The molecules below were run on Bleomycin-induced lung fibrosis (assay: Bleomycin-induced lung fibrosis model). Details: 100 mg/kg pirfenidone BID, oral, days 7 to 21, bleomycin 1.5 U/kg.
Protocol: Treatment group animals (n=10/group) received 1.5 U/kg of clinical bleomycin via oropharyngeal route on day 0 under inhalant anaesthesia. Animals were monitored for tolerance of the bleomycin administration procedure and subsequently bodyweights of all mice were recorded at least 3 times per week during the study. […] All treatments were administered orally.
At day 21, lungs were harvested from each animal and weighed, followed by fixation in 10% neutral buffered formalin (NBF) for histopathological analysis. The lung samples were processed and embedded with all lobes from each mouse in one paraffin block. Coronal sections through the four major lobes were stained with Masson's Trichrome. For each animal, consecutive lung fields were examined at 200×magnification in a raster pattern using a 20×objective lens and a 10×ocular lens. […] The Fibrotic Index was calculated as the sum of the modified Ashcroft field scores divided by the number of fields examined.

Structure (SMILES)	In life mortality
Cc1ccc(=O)n(-c2ccccc2)c1 [pirfenidone, reference compound]	0%

These molecules were tested on diet-induced NAFLD/NASH (assay: Diet-induced model of NAFLD/NASH). Details: diet-induced NAFLD/NASH, P.O., 8 weeks; Elafibranor 30 mg/kg QD.
Format: in vivo, mice
Protocol: Mice were fed Amylin-diet (D09100301, Research Diets, US; 40% fat (18% trans-fat), 40% carbohydrate (20% fructose) and 2% cholesterol) for 37 weeks. Liver biopies were harvested and mice were randomization into treatment groups based on liver Colla1 quantification. Three weeks following biopsy surgery, study animals were dosed orally (P.O.) with either; Vehicle (0.5% HPMC/0.5% PVP/0.1% SDS nanosuspension), MT#1 @ 15 mg/kg QD or MT#1 @ […] QD […] or with Elafibranor @ 30 mg/kg QD (positive control) for eight (8) weeks. A control group of age- and sex-matched mice fed lean chow diet ad libitum were also administered vehicle (P.O) over the same 8 (eight) week period. Following the full dosing schedule, mice were sacrificed, whole livers resected and weighed, fixed in paraformaldehyde before being paraffin embedded. H&E stained slides were then prepared and the average % fractional area of lipid vacuoles (steatosis) determined for each section (@ 20×objective) using Visiomorph software (Visophram, Denmark). The average % fractional area was multiplied by the total liver weight to determine the total liver lipid content per animal. Values expressed as mean of n=9-12+SEM. Dunnett's test one-factor linear model. **: P<0.01, ***: P<0.001 compared to DIO-NASH Vehicle.
Summary of fibrosis stage scores of pre- and post-study liver biopsies harvested from the diet-induced NAFLD/NASH study. Fibrosis stage scores are determined by assessment of picosirius red stained liver sections for relative appearance and location of collagen staining, where; 0=No staining, 1=Perisinusoidal or periportal, 2=Perisinusoidal and periportal and […]=Bridging collagen staining observed. For each group of animals with higher (worsening), same or lower (improvement) in score at post-compared to pre-study is indicated by the height of the bar. One-sided Fisher's exact test with Bonferroni correction. No differences at significance level 0.05.

Structure (SMILES)	fibrotic stage scores (picosirius red stained liver sections, post- compared to pre-study biopsy)	liver steatosis
CSc1ccc(C(=O)/C=C/c2cc(C)c(OC(C)(C)C(=O)O)c(C)c2)cc1 [Elafibranor, reference compound]	Neither MT#1 or Elafibranor (positive control) significantly improved; also recorded: failed to statistically improve	significantly reducing
